Assay results published in the supplement of paper PMC8967900.

Experiments:
Test in all cases: selective drug sensitivity score (sDSS, relative to normal bone marrow) (sDSS (score)); higher = more potent and effective on the cell line relative to normal bone marrow cells
Details in all cases: 72 h
[1] = system: NALM-6
[2] = system: MOLT-16
[3] = system: NALM-16
[4] = system: MHH-CALL-2
[5] = system: P30-OHKUBO
[6] = system: COG-LL-332h
[7] = system: MHH-CALL-3
[8] = system: JURKAT
[9] = system: LC4-1
[10] = system: PEER
[11] = system: 380
[12] = system: COG-LL-394h
[13] = system: ALL-PO
[14] = system: ALL-SIL
[15] = system: SEM cells
[16] = system: CCRF-CEM
[17] = system: NALL-1
[18] = system: MN-60
[19] = system: MHH-CALL-4
[20] = system: COG-LL-319h
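Further: ALL cell lines in 384-well plates, five doses spanning 10,000-fold, each plate scaled between vehicle and 100 µmol/L benzalkonium chloride controls, sDSS an adapted area-under-curve metric.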

SMILES	selective drug sensitivity score [1]	selective drug sensitivity score [2]	selective drug sensitivity score [3]	selective drug sensitivity score [4]	selective drug sensitivity score [5]	selective drug sensitivity score [6]	selective drug sensitivity score [7]	selective drug sensitivity score [8]	selective drug sensitivity score [9]	selective drug sensitivity score [10]	selective drug sensitivity score [11]	selective drug sensitivity score [12]	selective drug sensitivity score [13]	selective drug sensitivity score [14]	selective drug sensitivity score [15]	selective drug sensitivity score [16]	selective drug sensitivity score [17]	selective drug sensitivity score [18]	selective drug sensitivity score [19]	selective drug sensitivity score [20]
Cn1cnc2c(F)c(Nc3ccc(Br)cc3F)c(C(=O)NOCCO)cc21 [Binimetinib] (top concentration 1000 nM)	5.78	-0.42	-0.12	5.28	-2.22	-2.22	7.18	-2.02	2.18	0.58	1.58	0.48	3.08	-1.02	-2.22	1.38	-2.22	-2.22	4.98	2.98
O=C(Nc1cc(Oc2cc(F)c(NC(=O)C3(C(=O)Nc4ccc(F)cc4)CC3)cc2F)ccn1)C1CC1 [Altiratinib] (top concentration 10000 nM)	1.34	0.04	-2.56	3.74	1.84	3.84	-4.86	0.84	-0.36	9.24	-0.86	1.84	8.94	13.9	13.7	-0.16	4.14	-4.86	2.84	2.84
Cc1ccc(C(=O)N(CCCN)[C@@H](c2oc3cc(Cl)ccc3c(=O)c2Cc2ccccc2)C(C)C)cc1 (top concentration 100 nM)	3.56	7.46	5.76	9.46	4.06	6.96	-2.44	2.96	2.86	4.96	1.46	-2.24	-0.24	1.06	5.66	2.76	6.06	-1.84	6.96	13
CCc1nc(C(N)=O)c(Nc2ccc(N3CCC(N4CCN(C)CC4)CC3)c(OC)c2)nc1NC1CCOCC1 [Gilteritinib] (top concentration 1000 nM)	-2.52	-2.52	-2.52	-1.32	7.38	-2.52	-2.52	-2.52	0.38	-2.22	-2.52	1.78	2.28	-2.52	4.38	-2.42	-2.52	-2.52	-2.52	13.6
CC[C@H](Nc1ncnc2[nH]cnc12)c1nc2cccc(F)c2c(=O)n1-c1ccccc1 [Idelalisib] (top concentration 10000 nM)	7.24	1.24	-2.16	11.3	7.94	0.04	9.44	-1.76	-0.16	-2.16	5.74	-2.16	-1.06	0.04	3.54	3.64	3.54	-2.16	4.04	1.74
Cc1cc2c(C(C)C)c(O)c(O)c(C=O)c2c(O)c1-c1c(C)cc2c(C(C)C)c(O)c(O)c(C=O)c2c1O [AT-101] (top concentration 100000 nM)	6.38	5.88	0.98	4.18	5.18	4.08	-0.92	4.28	9.28	4.18	-0.22	3.78	8.98	5.08	3.78	4.88	4.58	3.28	3.98	4.48
Sc1ncnc2nc[nH]c12 [Mercaptopurine] (top concentration 10000 nM)	9.1	16.9	7.9	13.4	8.9	15.5	0	10.3	17.1	6.7	7.4	0.5	14.9	14.8	12.6	14.1	10.7	6.6	11.1	17.7
COc1ccc(Cn2ccc3ccc(C(=O)NO)cc32)cc1 (top concentration 10000 nM)	1.54	4.04	2.44	6.24	2.24	8.14	1.74	2.84	4.54	2.24	10.2	0.94	2.84	2.64	2.94	3.34	-0.86	3.44	0.64	8.04
CNC(=O)c1nn(C)c2c1C(C)(C)Cc1cnc(Nc3ccc(N4CCN(C)CC4)cc3)nc1-2 [Milciclib] (top concentration 10000 nM)	1.94	6.44	3.34	9.54	4.94	3.24	-5.26	4.34	5.94	5.84	-0.06	1.74	9.94	10.9	10	2.04	-0.86	2.04	-0.06	7.64
Cc1ccc(C(=O)Nc2ccc(Oc3cc4cnn(C)c4cc3-c3cn[nH]c3)c(F)c2)c(=O)n1-c1ccc(F)cc1 [Merestinib] (top concentration 1000 nM)	-0.62	-0.62	2.58	9.68	0.88	-0.62	-0.62	-0.62	-0.62	-0.22	-0.62	-0.62	15.2	0.28	19.8	-0.62	8.28	1.38	-0.42	-0.62
